Key:
LC-1F = conditions: read-out: IC50 for erlotinib (printed in the Afatinib column, marked &), cancerrxgene.org; cited from earlier work
H1975 and H1975-OR cells = assay: MTT proliferation assay; type: cell-based; conditions: 1 μM Osimertinib
Description: The H1975 and A549 cell lines were purchased from ATCC (Manassas, Va.), the PC9 cell line was a gift from Katie Politi, and the HCC-827 and HCC-827-GR lines were gifts from Jeff Engelman (MGH, Boston Mass.). Cell lines were cultured in RPMI 1640+10% FBS supplemented with penicillin and streptomycin (Gibco, Life Technologies, Grand Island, N.Y., US) in a humidified incubator with 5% CO2, and they were kept in culture no more than 4 months after resuscitation from the original stocks. No additional authentication was performed. Mycoplasma cell culture contamination was routinely checked and ruled out using the MycoAlert Mycoplasma Detection Kit (Lonza, Rockland, Me. USA). To generate a TKI resistant cell lines, either PC9 or H1975 cells were exposed to increasing concentrations of gefitinib or osimertinib, respectively. Gefitinib or Osimertinib concentrations were increased stepwise when cells resumed growth kinetics similar to the untreated parental cells over a dose range from 10 to 500 nM. Resistant cell cultures were obtained ˜8-12 weeks after initiation of drug exposure. To confirm the emergence of a therapeutic resistant, MTT assays were performed after allowing the cells to grow in drug-free conditions for at least 4 days.
Growth rates were determined by CellTiter 96 NonRadioactive Cell Proliferation Assay (Promega; Madison, Wis., USA) according to the manufacturer's directions. Briefly, NSCLC cells (2×103) untreated or treated with 10 μM NGI-1, 100 nM Gefitinib, or 1 μM Osimertinib (Selleck Chemicals), were seeded in triplicate in 96-wells plates and grown in culture medium containing 10% serum. The media was changed with or without new inhibitor every 48 h. Cell numbers were estimated after 0, 3, and 5 days by adding MTT (3-(4,5-dimethylthiazol-2-yl)-2,5-diphenyltetrazolium bromide) reagent to the wells 4 h before taking the spectrophotometric reading (absorbance at 570 nm).

H1975-OR xenografts = assay: NSCLC xenograft tumor growth; type: in vivo, athymic Swiss nu/nu mice; conditions: 5 mg/kg osimertinib oral daily; 5 mg/kg NGI-1-NP as printed in b391 (20 mg/kg elsewhere in the source); blank NPs 926±253 mm3
Description: The effects of NGI-1 were evaluated in Six-to-eight-week old female athymic Swiss nu/nu mice bearing bilateral flank xenograft tumors. Five days after inoculation, mice were randomized to receive i.v. NGI-1 NPs (20 mg/kg) or blank NPs three times per week for a total of 8 doses. […] Tumor size was measured three times per week and volume was calculated according to the formula π/6×(length)×(width)^2.

[1] = Contessa et al., Clin Cancer Res. 2010; cited from earlier work
D54-ERLucT xenografts = assay: Bioluminescent imaging of inhibition of N-linked glycosylation in xenografts; type: in vivo, mice; conditions: 24 hours; tunicamycin 1 mg/kg, positive control
Description: All experimental procedures were approved in accordance with IACUC and Yale University institutional guidelines for animal care and ethics and guidelines for the welfare and use of animals in cancer research (Workman et al., Br J Cancer, 102:1555-77 (2010)). NGI-1 delivery to glioma xenografts was evaluated using a bioluminescent imaging platform that detects inhibition of NLG (Contessa at al., Clin Cancer Res., 16:3205-14 (2010)). Ten days after subcutaneous injection of 1×10^7 gliomas cells, mice bearing palpable tumors were treated with control or NGI-1 NPs (20 mg/kg), or tunicamycin 1 mg/kg and imaged 5-30 minutes after delivery of i.p. luciferin (150 mg/kg). Signal intensity was quantified for a region of interest (ROI) encompassing each tumor and induction of bioluminscence was calculated by comparing peak bioluminescent activity from pre- and post-treatment imaging at 24 and 48 hours.

C#Cc1cccc(Nc2ncnc3cc(OCCOC)c(OCCOC)cc23)c1 [erlotinib]
IC50 (LC-1F): 390 nM

C=CC(=O)Nc1cc(Nc2nccc(-c3cn(C)c4ccccc34)n2)c(OC)cc1N(C)CCN(C)C [osimertinib]
sensitivity of proliferation to osimertinib (H1975 and H1975-OR cells; H1975-OR cells): resistant
sensitivity of proliferation to osimertinib (H1975 and H1975-OR cells; H1975 cells): sensitive
mean tumor volume at day 78 (H1975-OR xenografts): 584±296 mm^3

tunicamycin
toxicity [1]: significant toxicity both in vitro and in vivo
induction of bioluminescence (D54-ERLucT xenografts): 4.2 fold

Source: US10765638B2, “Particle formulation with polycation complex” (Yale University, priority 2017, dated 2020)
